In patent US20250115591A1, “NOVEL SULFONAMIDE CARBOXAMIDE COMPOUNDS” (INFLAZOME LIMITED, priority 2017, published 2025) one finds IC50 data, which are given here for 29 compounds.

The assay concerns the target NLRP3 (Homo sapiens (Human), UniProt Q96P20). Briefly: THP-1 cells pyroptosis assay (LPS + nigericin, resazurin read-out). The note with it: 1 μg/ml LPS, 5 μM nigericin. It counts as cell-based. On the procedure: THP-1 cells (ATCC #TIB-202) were grown in RPMI containing L-glutamine (Gibco 15 #11835) supplemented with 1 mM sodium pyruvate (Sigma #S8636) and penicillin (100 units/ml)/streptomycin (0.1 mg/ml) (Sigma #P4333) in 10% Fetal Bovine Serum (FBS) (Sigma #F0804). The cells were routinely passaged and grown to confluency (˜10^6 cells/ml). On the day of the experiment, THP-1 cells were harvested and resuspended into RPMI medium (without FBS). The cells were then counted and viability (>90%) checked by Trypan blue (Sigma #T8154). Appropriate dilutions were made to give a concentration of 625,000 cells/ml. To this diluted cell solution was added LPS (Sigma #[4524) to give a 1 μg/ml Final Assay Concentration (FAC). 40μ of the final preparation was aliquoted into each well of a 96-well plate. The plate thus prepared was used for compound screening.
The following method step-by-step assay was followed for compound screening. • 1. Seed THP-1 cells (25,000 cells/well) containing 1.0 μg/ml LPS in 40μ of RPMI medium (without FBS) in 96-well, black walled, clear bottom cell culture plates coated with poly-D-lysine (VWR #734-0317) • 2. Add 5 μl compound (8 points half-log dilution, with […]) or vehicle (DMSO 0.1% FAC) to the appropriate wells • 3. Incubate for 3 hrs at 37° C. and 5% CO2 • 4. Add 5 μl nigericin (Sigma #N7143) (FAC 5 μM) to all wells • 5. Incubate for 1 hr at 37° C. and 5% CO2 • 6. At the end of the incubation period, spin plates at 300×g for 3 mins and remove supernatant • 7. Then add 50 μl of resazurin (Sigma #R7017) (FAC 100 μM resazurin in RPMI medium without FBS) and incubate plates for a further 1-2 hrs at 37° C. and 5% CO2 • 8. Plates were read in an Envision reader at Ex 560 nm and Em 590 nm • 9. IC50 data is fitted to a non-linear regression equation (log inhibitor vs response-variable slope 4-parameters)

Structures are written as SMILES. Counter-ions that a name gives are not always drawn.

Chain of NLRP3 (Q96P20 whole entry): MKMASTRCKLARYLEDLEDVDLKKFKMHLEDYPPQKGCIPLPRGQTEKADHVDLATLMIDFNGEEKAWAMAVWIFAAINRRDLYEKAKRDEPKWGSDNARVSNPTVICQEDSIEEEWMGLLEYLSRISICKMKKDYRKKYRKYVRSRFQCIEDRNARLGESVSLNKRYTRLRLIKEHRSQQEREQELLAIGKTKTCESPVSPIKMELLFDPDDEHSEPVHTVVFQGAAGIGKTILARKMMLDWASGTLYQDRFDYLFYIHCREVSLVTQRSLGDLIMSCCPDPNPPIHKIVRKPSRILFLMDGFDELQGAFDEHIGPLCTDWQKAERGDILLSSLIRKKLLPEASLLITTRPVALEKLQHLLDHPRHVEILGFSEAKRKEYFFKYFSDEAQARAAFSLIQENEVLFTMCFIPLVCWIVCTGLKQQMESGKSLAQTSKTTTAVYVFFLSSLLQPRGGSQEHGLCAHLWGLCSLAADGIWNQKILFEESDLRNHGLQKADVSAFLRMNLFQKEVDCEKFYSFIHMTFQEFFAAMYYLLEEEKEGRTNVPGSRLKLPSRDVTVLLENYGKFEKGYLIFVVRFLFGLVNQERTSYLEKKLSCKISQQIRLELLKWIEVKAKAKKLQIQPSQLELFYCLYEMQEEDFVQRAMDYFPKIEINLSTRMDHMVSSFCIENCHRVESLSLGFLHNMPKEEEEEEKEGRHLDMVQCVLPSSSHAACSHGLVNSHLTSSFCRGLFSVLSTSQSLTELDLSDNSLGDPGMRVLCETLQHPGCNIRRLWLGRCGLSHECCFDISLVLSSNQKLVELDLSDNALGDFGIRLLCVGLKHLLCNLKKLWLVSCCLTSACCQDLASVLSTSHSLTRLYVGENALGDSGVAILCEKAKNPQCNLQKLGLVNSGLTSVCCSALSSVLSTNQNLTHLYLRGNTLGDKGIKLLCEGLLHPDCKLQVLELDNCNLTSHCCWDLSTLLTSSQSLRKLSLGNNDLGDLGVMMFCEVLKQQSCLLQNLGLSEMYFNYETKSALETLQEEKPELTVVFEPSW

Turning to `CCC(=O)N1CCC(S(=O)(=O)NC(=O)Nc2c3c(cc4c2CCC4)CCC3)CC1` [Example 10, N-((1,2,3,5,6,7-Hexahydro-s-indacen-4-yl)carbamoyl)-1-propionylpiperidine-4-sulfonamide, potassium salt], the 50% inhibitory concentration (IC50) lay within 1 to 10 µM. The result for `CC(C)C(=O)N1CCC(S(=O)(=O)NC(=O)Nc2c3c(cc4c2CCC4)CCC3)CC1` [Example 11, N-((1,2,3,5,6,7-Hexahydro-s-indacen-4-yl)carbamoyl)-1-isobutyrylpiperidine-4-sulfonamide, potassium salt] reads 1 to 10 µM; that for `COCC(=O)N1CCC(S(=O)(=O)NC(=O)Nc2c3c(cc4c2CCC4)CCC3)CC1` [Example 12, N-((1,2,3,5,6,7-Hexahydro-s-indacen-4-yl)carbamoyl)-1-(2-methoxyacetyl)piperidine-4-sulfonamide, potassium salt], 1 to 10 µM. The result for `N#CCN1CCC(S(=O)(=O)NC(=O)Nc2c3c(cc4c2CCC4)CCC3)CC1` [Example 14, 1-(Cyanomethyl)-N-((1,2,3,5,6,7-hexahydro-s-indacen-4-yl)carbamoyl)piperidine-4-sulfonamide, potassium salt] reads 1 to 10 µM.

As for `O=C(Nc1c2c(cc3c1CCC3)CCC2)NS(=O)(=O)C1CCN(C2CCC2)CC1` [Example 15, 1-Cyclobutyl-N-((1,2,3,5,6,7-hexahydro-s-indacen-4-yl)carbamoyl)piperidine-4-sulfonamide, potassium salt], the IC50 is 1 to 10 µM. The result for `CCCN1CCC(S(=O)(=O)NC(=O)Nc2c3c(cc4c2CCC4)CCC3)CC1` [Example 19, N-((1,2,3,5,6,7-Hexahydro-s-indacen-4-yl)carbamoyl)-1-propyl piperidine-4-sulfonamide, potassium salt] reads 1 to 10 µM. Consider `O=C(Nc1c2c(cc3c1CCC3)CCC2)NS(=O)(=O)C1CCN(C2COC2)CC1` [Example 20, N-((1,2,3,5,6,7-Hexahydro-s-indacen-4-yl)carbamoyl)-1-(oxetan-3-yl)piperidine-4-sulfonamide, potassium salt], for which the half-inhibitory concentration (IC50) lay in the range of 1 to 10 µM. The result for `COC(=O)CN1CCC(S(=O)(=O)NC(=O)Nc2c3c(cc4c2CCC4)CCC3)CC1` [Example 21, Methyl 2-(4-(N-((1,2,3,5,6,7-Hexahydro-s-indacen-4-yl)carbamoyl)sulfamoyl)piperidin-1-yl)acetate, potassium salt] reads 1 to 10 µM; that for `O=C(Nc1c2c(cc3c1CCC3)CCC2)NS(=O)(=O)C1CCN(CCF)CC1` [Example 22, 1-(2-Fluoroethyl)-N-((1,2,3,5,6,7-hexahydro-s-indacen-4-yl)carbamoyl)piperidine-4-sulfonamide, potassium salt], 1 to 10 µM. The result for `O=C(Nc1c2c(cc3c1CCC3)CCC2)NS(=O)(=O)C1CCN(C2CC2)CC1` [Example 23, 1-Cyclopropyl-N-((1,2,3,5,6,7-hexahydro-s-indacen-4-yl)carbamoyl)piperidine-4-sulfonamide, potassium salt] reads 1 to 10 µM; that for `O=C(Nc1c2c(cc3c1CCC3)CCC2)NS(=O)(=O)C1CCN(C(=O)C2CCC2)CC1` [Example 25, 1-(Cyclobutanecarbonyl)-N-((1,2,3,5,6,7-hexahydro-s-indacen-4-yl)carbamoyl)piperidine-4-sulfonamide, potassium salt], 1 to 10 µM; that for `O=C(Nc1c2c(cc3c1CCC3)CCC2)NS(=O)(=O)C1CCCN(C(=O)NC2CCC2)C1` (centres unmarked) [Example 27, N-Cyclobutyl-3-(N-((1,2,3,5,6,7-hexahydro-s-indacen-4-yl)carbamoyl)sulfamoyl)piperidine-1-carboxamide, potassium salt], 1 to 10 µM.

Regarding `CS(=O)(=O)N1CCC(S(=O)(=O)NC(=O)Nc2c3c(cc4c2CCC4)CCC3)CC1` [Example 29, N-((1,2,3,5,6,7-Hexahydro-s-indacen-4-yl)carbamoyl)-1-(methylsulfonyl)piperidine-4-sulfonamide, potassium salt], the IC50 lay within 1 to 10 µM. The result for `CN1CCC(S(=O)(=O)NC(=O)Nc2c3c(cc4c2CCC4)CCC3)C1` (centres unmarked) [Example 36, N-((1,2,3,5,6,7-Hexahydro-s-indacen-4-yl)carbamoyl)-1-methylpyrrolidine-3-sulfonamide, potassium salt] reads 1 to 10 µM; that for `CN(C)C(=O)N1CCC(S(=O)(=O)NC(=O)Nc2c3c(cc4c2CCC4)CCC3)C1` (centres unmarked) [Example 40, 3-(N-((1,2,3,5,6,7-Hexahydro-s-indacen-4-yl)carbamoyl)sulfamoyl)-N,N-dimethylpyrrolidine-1-carboxamide], 1 to 10 µM. With `O=C(Nc1c2c(cc3c1CCC3)CCC2)NS(=O)(=O)C1CN2CCC1CC2` (centres unmarked) [Example 43, N-((1,2,3,5,6,7-Hexahydro-s-indacen-4-yl)carbamoyl) quinuclidine-3-sulfonamide, potassium-salt], the IC50 was in the range of 1 to 10 µM. Consider `CCN1CCC(N2CCC(S(=O)(=O)NC(=O)Nc3c4c(cc5c3CCC5)CCC4)C2)CC1` (centres unmarked) [Example 44, 1-(1-Ethylpiperidin-4-yl)-N-((1,2,3,5,6,7-hexahydro-s-indacen-4-yl)carbamoyl)pyrrolidine-3-sulfonamide, potassium salt], for which the concentration for half-maximal inhibition (IC50) fell in the range of 1 to 10 µM. As to `CC(C)N1CCC(S(=O)(=O)NC(=O)Nc2c3c(cc4c2CCC4)CCC3)CC1` [Example 47, N-((1,2,3,5,6,7-Hexahydro-s-indacen-4-yl)carbamoyl)-1-iso-propylpiperidine-4-sulfonamide, potassium salt], the IC50 lay within 1 to 10 µM. The result for `CCN1CCC(N2CCC(S(=O)(=O)NC(=O)Nc3c4c(cc5c3CCC5)CCC4)CC2)CC1` [Example 48, 1′-Ethyl-N-((1,2,3,5,6,7-hexahydro-s-indacen-4-yl)carbamoyl)-[1,4′-bipiperidine]-4-sulfonamide, potassium salt] reads 1 to 10 µM; that for `CCN1CC2(CC(S(=O)(=O)NC(=O)Nc3c4c(cc5c3CCC5)CCC4)C2)C1` [Example 50, 2-Ethyl-N-((1,2,3,5,6,7-hexahydro-s-indacen-4-yl)carbamoyl)-2-azaspiro[3.3]heptane-6-sulfonamide, potassium salt], 1 to 10 µM; that for `CC(C)N1CC(N2CCC(S(=O)(=O)NC(=O)Nc3c4c(cc5c3CCC5)CCC4)C2)C1` (centres unmarked) [Example 51, N-((1,2,3,5,6,7-Hexahydro-s-indacen-4-yl)carbamoyl)-1-(1-isopropylazetidin-3-yl)pyrrolidine-3-sulfonamide, potassium salt], 1 to 10 µM. The result for `O=C(Nc1c2c(cc3c1CCC3)CCC2)NS(=O)(=O)C1CCN(C(=O)C(F)(F)F)C1` (centres unmarked) [Example 54, N-((1,2,3,5,6,7-Hexahydro-s-indacen-4-yl)carbamoyl)-1-(2,2,2-trifluoroacetyl)pyrrolidine-3-sulfonamide, potassium salt] reads 1 to 10 µM; that for `O=C(Nc1c2c(cc3c1CCC3)CCC2)NS(=O)(=O)C1CCCN(CC2CC2)C1` (centres unmarked) [Example 57, 1-(Cyclopropylmethyl)-N-((1,2,3,5,6,7-hexahydro-s-indacen-4-yl)carbamoyl)piperidine-3-sulfonamide, potassium salt], 1 to 10 µM. The result for `N#CCN1CCCC(S(=O)(=O)NC(=O)Nc2c3c(cc4c2CCC4)CCC3)C1` (centres unmarked) [Example 58, 1-(Cyanomethyl)-N-((1,2,3,5,6,7-hexahydro-s-indacen-4-yl)carbamoyl)piperidine-3-sulfonamide, potassium salt] reads 1 to 10 µM; that for `C#CCN1CCCC(S(=O)(=O)NC(=O)Nc2c3c(cc4c2CCC4)CCC3)C1` (centres unmarked) [Example 59, N-((1,2,3,5,6,7-Hexahydro-s-indacen-4-yl)carbamoyl)-1-(prop-2-yn-1-yl)piperidine-3-sulfonamide, potassium salt], 1 to 10 µM. Take `CN1CCCC(S(=O)(=O)NC(=O)Nc2c3c(cc4c2CCC4)CCC3)C1` (centres unmarked) [Example 60, N-((1,2,3,5,6,7-Hexahydro-s-indacen-4-yl)carbamoyl)-1-methylpiperidine-3-sulfonamide, potassium salt]: the IC50 fell in the range of 1 to 10 µM.

On to `CN(C)C(=O)N1CCC(S(=O)(=O)NC(=O)Nc2c3c(cc4c2CCC4)CCC3)CC1` [Example 61, 4-(N-((1,2,3,5,6,7-Hexahydro-s-indacen-4-yl)carbamoyl)sulfamoyl)-N,N-dimethylpiperidine-1-carboxamide], for which the IC50 fell in the range of 1 to 10 µM.

Regarding `CC(C)N1CC(N2CCC(S(=O)(=O)NC(=O)Nc3c4c(cc5c3CCC5)CCC4)CC2)C1` [Example 62, N-((1,2,3,5,6,7-Hexahydro-s-indacen-4-yl)carbamoyl)-1-(1-isopropylazetidin-3-yl)piperidine-4-sulfonamide, potassium salt], the IC50 lay within 1 to 10 µM.

For `CC(C)N1CC2(CC(S(=O)(=O)NC(=O)Nc3c4c(cc5c3CCC5)CCC4)C2)C1` [Example 63, N-((1,2,3,5,6,7-Hexahydro-s-indacen-4-yl)carbamoyl)-2-isopropyl-2-azaspiro[3.3]heptane-6-sulfonamide, potassium salt], the IC50 is 1 to 10 µM.

For orientation: IC50 means the concentration needed to halve the response being measured.
